{"source": "patent EP0314302A2", "about": "“Herbicidal o-carbomethoxy-sulfonylureas” (E.I. DU PONT DE NEMOURS AND COMPANY, priority 1987, dated 1989)", "key": {"Coffee [1]": {"tested_on": "Coffee", "assay": "Test 9 postemergence", "type": "in vivo", "conditions": "scale 0-100", "experimental": "Plastic windowsill pots containing planting medium were seeded with bahiagrass, bindweed (Convolvulus spp), guinea grass (Panicum maximum), large crabgrass (Digitaria sanguinalis) and pigweed (Amaranthus spp). Individual 15-cm plastic pots contained sandbur (Cenchrus echinatus), Mikania cordata, Boston fern (Nephrolepis exalata), quackgrass (Agropyron repens), elephantgrass (Pennisetum purpureum) and sowthistle (Sonchus spp) plants.\nPlants were treated postemergence with Compound I formulated in a non-phytotoxic solvent. Plants were visually rated 22 days after treatment (DAT). Injury and weed control ratings were based on the scale of 0 to 100 where 0 = no effect, 20 = minimal control and 100 = complete control."}, "Red clover": {"tested_on": "Red clover", "assay": "Test 7 postemergence", "type": "in vivo, Trifolium pratense", "conditions": "scale 0-100", "experimental": "(§1) Individual 11.4-cm plastic pots filled with planting medium were seeded with rape, wild radish (Raphanus raphanistruna). tansy mustard (Descurainia pinnata), ball mustard (Neslia paniculata), black mustard (Brassica nigra), yellow mustard, brown mustard, lentils, safflower, flax, sunflower, peanut, vetch, alfalfa, field bean, pea, violet (Viola spp), Kochia (Kochia spp), Russian thistle (Salsola spp), Matricaria spp, groundsel (Senecio spp), shepherdspurse (Capsella bursa-pastoris), nightshade (Solanum spp), sowthistle (Sonchus spp), sugar beet, wheat, \"Bonanza\" barley and \"Morex\" barley, Kentucky bluegrass (Poa pratensis), red clover (Trifolium pratense), dandelion (Taraxacum spp) and buckhorn plantain (Plantago lanceolata).\n(§2) Plants were treated postemergence with the compound formulated with a non-phytotoxic carrier. Plants were visually rated 18 days after treatment (DAT). Response ratings were based on the scale of 0 to 100 where 0 = no effect, 20 = minimal injury and 100 = complete control."}, "Buckhorn plantain": {"tested_on": "Buckhorn plantain", "assay": "Test 7 postemergence", "type": "in vivo, Plantago lanceolata", "conditions": "scale 0-100", "experimental": "as §1, §2"}, "coffee [2]": {"tested_on": "coffee", "assay": "Test 6 effect of surfactants, postemergence", "type": "in vivo, Coffea spp", "conditions": "addition of a surfactant", "excerpt": "The object of this test was to evaluate the effect of surfactants and plant growth stage on the efficacy of the compound of this invention. Plastic windowsill pots were filled with planting medium and seeded with yellow nutsedge (Cyperus esculentus), large crabgrass (Digitaria sanguinalis), goosegrass (Elsusine indica), bermudagrass (Cynodon dactylon), broadleaf signalgrass (Brachiara platyphalla), smooth crabgrass (Digitaria ischaemum), guinea grass (Panicum maximum) and johnsongrass (Sorghum halapense). Coffee (Coffea spp) plants with 2 to 4 branches were included in one test.\nPlants were treated postemergence with Compound I formulated with different surfactants or a non-phytotoxic carrier made up of acetone-humectant-water-surfactant."}, "Nephrolepis exalata": {"tested_on": "Nephrolepis exalata", "assay": "Test 4 plantation crop weeds, postemergence", "type": "in vivo", "conditions": "Table 4, scale 0-100", "excerpt": "(§3) The object of this test was to evaluate the efficacy of the compound of this invention on weeds that infest some plantation crops at different growth stages of the weeds. Asystasia intrusa, Mikania cordata, goldenrod Solidago spp, Boston fern Nephrolepis exalata, and lalang Imparata cylindrica were planted in 15-cm plastic pots. Plants were sprayed postemergence with Compound I in a non-phytotoxic solvent. The Asystasia plants ranged in growth from 4 leaves to 9 leaves and very branched, Mikania had 6 leaves to vining, the goldenrod was branching and the Boston fern was growing vigorously. The degree of weed control was visually rated 20 to 24 days after treatment (DAT). Control ratings are based on the scale of 0 to 100 where 0 = no effect, 20 = minimal control and 100 = complete control. Variations in the results of the tests could be due to the fact that the tests were run at different times of the year or due to the stage of growth of the weeds."}, "Mikania cordata": {"tested_on": "Mikania cordata", "assay": "Test 4 plantation crop weeds, postemergence", "type": "in vivo", "conditions": "scale 0-100", "excerpt": "as §3"}, "Asystasia intrusa": {"tested_on": "Asystasia intrusa", "assay": "Test 4 plantation crop weeds, postemergence", "type": "in vivo", "conditions": "scale 0-100; for Control Rating 24 DAT: Table 4, at 4-leaf stage", "excerpt": "as §3"}, "Common ragweed": {"tested_on": "Common ragweed", "assay": "Test 11 windowsill flats, postemergence", "type": "in vivo, Ambrosia artemisiifolia", "conditions": "Postemergence 32 g/ha, 0.25% X-77 surfactant, scale 0-100", "experimental": "Budded citrus seedlings were planted in 30-liter plastic pots which were also seeded with sandbur, guineagrass, narrowleaf panicum, common ragweed, yellow nutsedge, purple nutsedge and bindweed. Compound I was applied preemergence and postemergence to the weeds. Treatments were sprayed to simulate the trunk-to-trunk herbicide application method used in some citrus groves. The compound was also applied postemergence to weeds grown in windowsill flats. The flats were filled with planting medium and seeded with morningglory (Ipomoea spp.). purple nutsedge (Cyperus rotundus), pigweed (Amaranthus spp.), bindweed (Convolvulus spp.), narrowleaf panicum (Panicum maximum), common ragweed (Ambrosia artemisiifolia), sandbur (Cenchrus echinatus), itchgrass (Rottboellia exaltata), johnsongrass (Sorghum halepense), guineagrass (Panicum maximum), smooth crabgrass (Digitaria ischaemum), broadleaf signalgrass (Brachiaria platyphylla), bermudagrass (Cynodon dactylon), goosegrass (Eleusine indica), large crabgrass (Digitaria sanguinalis) and yellow nutsedge (Cyperus esculentus).\nThe compound was formulated and sprayed with 0.25% X-77 surfactant in water. Plants were visually rated 21 and 29 days after treatment and compared with appropriate controls. Injury ratings were based on the scale of 0 to 100, where 0 indicates no effect, 20 indicates minimum effect and 100 indicates complete control. […]"}, "[3]": {"conditions": "Table 6, profusely branching, 8 g/ha"}, "[4]": {"conditions": "Table 6, profusely branching, 16 g/ha"}, "[5]": {"conditions": "Table 6, profusely branching, 32 g/ha"}, "[6]": {"conditions": "Table 6, profusely branching, 64 g/ha"}}, "data": [{"smiles": "COC(=O)c1cccnc1S(=O)(=O)NC(=O)Nc1nc(OC)cc(OC)n1", "note": "[Compound I, 2-[[(4,6-dimethoxypyrimidin-2-yl)aminocarbonyl]aminosulfonyl]-3-pyridinecarboxylic acid, methyl ester]", "values": [{"measurement": "Plant Injury Rating 22 DAT", "setting": "Coffee [1]; 8 g/ha", "value": 0}, {"measurement": "Plant Injury Rating 22 DAT", "setting": "Coffee [1]; 16 g/ha", "value": 0}, {"measurement": "Plant Injury Rating 22 DAT", "setting": "Coffee [1]; 32 g/ha", "value": 0}, {"measurement": "Plant Injury Rating 18 DAT", "setting": "Red clover; 16 g/ha", "value": 100}, {"measurement": "Plant Injury Rating 18 DAT", "setting": "Red clover; 32 g/ha", "value": 100}, {"measurement": "Plant Injury Rating 18 DAT", "setting": "Buckhorn plantain; 16 g/ha", "value": 30}, {"measurement": "Plant Injury Rating 18 DAT", "setting": "Buckhorn plantain; 32 g/ha", "value": 50}, {"measurement": "safety to coffee", "setting": "coffee [2]", "value": "maintaining safety to coffee"}, {"measurement": "Control Rating 24 DAT", "setting": "Nephrolepis exalata; 4 g/ha", "value": 0}, {"measurement": "Control Rating 24 DAT", "setting": "Nephrolepis exalata; 8 g/ha", "value": 0}, {"measurement": "Control Rating 24 DAT", "setting": "Nephrolepis exalata; 16 g/ha", "value": 40}, {"measurement": "Control Rating 24 DAT", "setting": "Nephrolepis exalata; 32 g/ha", "value": 60}, {"measurement": "Control Rating 24 DAT", "setting": "Nephrolepis exalata; 64 g/ha", "value": 80}, {"measurement": "Control Rating 20 DAT", "setting": "Mikania cordata; Table 5, at 6 to 8-leaf stage, 8 g/ha", "value": 0}, {"measurement": "Control Rating 20 DAT", "setting": "Mikania cordata; Table 5, at 6 to 8-leaf stage, 16 g/ha", "value": 0}, {"measurement": "Control Rating 20 DAT", "setting": "Mikania cordata; Table 5, at 6 to 8-leaf stage, 32 g/ha", "value": 0}, {"measurement": "Control Rating 20 DAT", "setting": "Mikania cordata; Table 5, at 6 to 8-leaf stage, 64 g/ha", "value": 30}, {"measurement": "Control Rating 20 DAT", "setting": "Mikania cordata; [3]", "value": 0}, {"measurement": "Control Rating 20 DAT", "setting": "Mikania cordata; [4]", "value": 0}, {"measurement": "Control Rating 20 DAT", "setting": "Mikania cordata; [5]", "value": 0}, {"measurement": "Control Rating 20 DAT", "setting": "Mikania cordata; [6]", "value": 0}, {"measurement": "Control Rating 22 DAT", "setting": "Mikania cordata; Table 7, vining and profusely branching, 8 g/ha", "value": 0}, {"measurement": "Control Rating 22 DAT", "setting": "Mikania cordata; Table 7, vining and profusely branching, 16 g/ha", "value": 0}, {"measurement": "Control Rating 22 DAT", "setting": "Mikania cordata; Table 7, vining and profusely branching, 32 g/ha", "value": 0}, {"measurement": "Control Rating 22 DAT", "setting": "Mikania cordata; Table 7, vining and profusely branching, 64 g/ha", "value": 20}, {"measurement": "Control Rating 22 DAT", "setting": "Mikania cordata; Table 8, 16 g/ha", "value": 0}, {"measurement": "Control Rating 22 DAT", "setting": "Mikania cordata; Table 8, 32 g/ha", "value": 0}, {"measurement": "Control Rating 22 DAT", "setting": "Mikania cordata; Table 8, 64 g/ha", "value": 20}, {"measurement": "Control Rating 24 DAT", "setting": "Asystasia intrusa; 4 g/ha", "value": 20}, {"measurement": "Control Rating 24 DAT", "setting": "Asystasia intrusa; 8 g/ha", "value": 30}, {"measurement": "Control Rating 24 DAT", "setting": "Asystasia intrusa; 16 g/ha", "value": 40}, {"measurement": "Control Rating 24 DAT", "setting": "Asystasia intrusa; 32 g/ha", "value": 50}, {"measurement": "Control Rating 24 DAT", "setting": "Asystasia intrusa; 64 g/ha", "value": 60}, {"measurement": "Control Rating 20 DAT", "setting": "Asystasia intrusa; Table 5, at 6 to 9-leaf stage, 8 g/ha", "value": 0}, {"measurement": "Control Rating 20 DAT", "setting": "Asystasia intrusa; Table 5, at 6 to 9-leaf stage, 16 g/ha", "value": 60}, {"measurement": "Control Rating 20 DAT", "setting": "Asystasia intrusa; Table 5, at 6 to 9-leaf stage, 32 g/ha", "value": 90}, {"measurement": "Control Rating 20 DAT", "setting": "Asystasia intrusa; Table 5, at 6 to 9-leaf stage, 64 g/ha", "value": 100}, {"measurement": "Control Rating 20 DAT", "setting": "Asystasia intrusa; [3]", "value": 0}, {"measurement": "Control Rating 20 DAT", "setting": "Asystasia intrusa; [4]", "value": 0}, {"measurement": "Control Rating 20 DAT", "setting": "Asystasia intrusa; [5]", "value": 0}, {"measurement": "Control Rating 20 DAT", "setting": "Asystasia intrusa; [6]", "value": 30}, {"measurement": "Injury ratings", "setting": "Common ragweed", "value": 0}]}]}
